Assays:
[1] = system: PYR/PYL receptors and the PP2C HAB1; test: Yeast two-hybrid agonist assay (screens and receptor sensitivity); type: cell-based, Arabidopsis; conditions: 5 μM of test chemicals
Experimental: FIG. 1A-FIG. 1B. Novel ABA agonists bind to multiple PYR/PYL. (A) Chemical structure of naturally occurring (+)-ABA, its (−)analog and selected ABA agonists. (B) Yeast two-hybrid agonist assays of PYR/PYL receptor sensitivity to 5 μM of test chemicals. Specific PYR/PYL Receptors and the PP2C HAB1 are expressed as Ga14 BD or AD fusion proteins respectively, as described in the text.
A previously described yeast two-hybrid system was used in high throughput screens (HTS) to identify ABA agonists (see, Peterson F C, et al. (2010) Structural basis for selective activation of ABA receptors. Nature Structural & Molecular Biology 17(9):1109-1111). In this system the agonist promoted receptor-PP2C interaction drives expression of a URA3 or HIS3 reporter gene and rescues uracil or histidine auxotrophy of parental strains (Peterson F C, et al. (2010); Vidal M, Brachmann R K, Fattaey A, Harlow E, & Boeke J D (1996) Reverse two-hybrid and one-hybrid systems to detect dissociation of protein-protein and DNA-protein interactions. Proceedings of the National Academy of Sciences of the United States of America 93(19):10315-10320). […]

[2] = system: ABA-responsive genes; test: Quantitative RT-PCR of ABA-responsive genes in Arabidopsis; type: in vivo; conditions: for Induction of MAPKKK18, RD29A and RD29B mRNAs: Col and Ler ecotypes and pyr1, pyl1, pyl2, pyl3, pyl4 single mutants; for Expression of ABF3, GBF3, NCED3 and RD29A: Col wild-type plants; for Expression of RD29B and MAPKKK18 mRNA: wild-type plants
Experimental: (§1) FIG. 9A-FIG. 9D. LC66C6 induces numerous ABA-responsive genes. […] Ten-day old seedlings were treated with carrier solvent (DMSO) or either 25 μM ABA, pyrabactin or LC66C6 for 8 hours. Total RNA was then prepared labeled and hybridized to ATH1 microarrays. Data plotted are log 2 transformed average expression values for ˜13K probes that were detectable across all experiments. Data shown are averages determined from triplicate biological replicates. (C) and (D) show the expression of a reporter gene in different plant tissues after treatment with vehicle (DMSO), pyrabactin, LC66C6, or (+)-ABA.
FIG. 10. ABA-responsive gene expression in PYR/PYL single mutants. The response of the ABA-responsive MAPKKK18, RD29A, and RD29B mRNAs to LC66C6, ABA and pyrabactin were characterized in the Col and Ler ecotypes and the pyr1, pyl1, ply2, pyl3 and pyl4 single mutant genotypes.
FIG. 11. LC66C6 induces ABA-responsive gene expression in wild-type plants, abi1-1 and PYR/PYL quadruple mutants.
Total RNA was isolated using Plant RNA purification reagent (Invitrogen, USA) according to the manufacturer's instructions. cDNA was synthesized from 1 μg of total RNA using the QantiTec reverse transcription kit (Qiagen, USA). Real-time PCR using Maxima® SYBR Green/Fluorescein qPCR Master Mix (Fermentas) was performed with the iQ5 real-time PCR detection system (Bio-Rad, Hercules, Calif.). The relative amounts of target mRNAs were determined using the relative standard curve method and were normalized by relative amount of internal control mRNA. Biological triplicate experiments were performed.

[3] = system: ABA-responsive genes; test: ATH1 microarray analysis; type: in vivo, Arabidopsis; conditions: wild-type seedlings; 25 μM
Experimental: as §1
Total RNA was isolated using RNAeasy Plant Mini Kit (Qiagen, USA) according to the manufacturer's instructions. cDNA synthesis, labeling and hybridization to the Arabidopsis ATH1 chips (Affymetrix, USA) were performed by the IIGB Core Instrumentation Facility of University of California at Riverside using Affymetrix protocols. Biological triplicate samples were hybridized for DMSO controls, ABA, pyrabactin and quinabactin treatments; compound were applied at 25 μM final concentration and RNA prepared from frozen tissue after 6 hours exposure to compounds or controls. Expression signals for probe sets were calculated and normalized by MASS Statistical Algorithm (Affymetrix, USA). Experimental filtering of array data was performed for the presence of signal in all experiments. […]

SMILES	Agonist activity and receptor selectivity in yeast two-hybrid assay [1]	Induction of MAPKKK18, RD29A and RD29B mRNAs [2]	Expression of ABF3, GBF3, NCED3 and RD29A [2]	Expression of RD29B and MAPKKK18 mRNA [2]	Genome-wide expression pattern compared with ABA [3]
O=S(=O)(NCc1ccccn1)c1ccc(Br)c2ccccc12 [pyrabactin, reference compound]	much greater receptor selectivity than ABA or the new agonist LC66C6	did not significantly induce expression	did not induce significant expression	did not induce gene expression in wild-type plants	did not induce an expression pattern similar to that of ABA
CCCN1C(=O)CCc2cc(NS(=O)(=O)Cc3ccc(C)cc3)ccc21 [LC66C6]	agonist of multiple PYR/PYL receptors	induced	induced expression of ABF3, GBF3, NCED3, and RD29A in a dose dependent manner	induced the expression of RD29B and MAPKKK18 mRNA in a dose dependent manner in wild-type plants	induces a similar set of genes to those induced by ABA
